≈ marks a conversion by molar mass, not a printed value. Read-outs that look alike come from different tables or passages of the source.
Assays:
Mtb Praha 131 = assay: microbe, parasite or virus in culture; format: cell-based; conditions: Mycobacterium tuberculosis, read-out: MIC Mtb Praha 131
Mtb 7357/1998 = assay: microbe, parasite or virus in culture; format: cell-based; conditions: Mycobacterium tuberculosis, read-out: MIC Mtb 7357/1998
Mtb Praha 4 = assay: microbe, parasite or virus in culture; format: cell-based; conditions: Mycobacterium tuberculosis, read-out: MIC Mtb Praha 4
Mtb 8666/2010 = assay: microbe, parasite or virus in culture; format: cell-based; conditions: Mycobacterium tuberculosis, read-out: MIC Mtb 8666/2010
Mtb 234/2005 = assay: microbe, parasite or virus in culture; format: cell-based; conditions: Mycobacterium tuberculosis, read-out: MIC Mtb 234/2005
Mtb 9449/2007 = assay: microbe, parasite or virus in culture; format: cell-based; conditions: Mycobacterium tuberculosis, read-out: MIC Mtb 9449/2007
Mtb Praha 1 = assay: microbe, parasite or virus in culture; format: cell-based; conditions: Mycobacterium tuberculosis, read-out: MIC Mtb Praha 1
[1] = tested on: polyresistant Mtb strains; conditions: polyresistant Mtb strains (e.g., INH, STR, EMB); cited from earlier work

O=[N+]([O-])c1cc(-c2nnc(NCc3ccc(Cl)cc3Cl)o2)cc([N+](=O)[O-])c1 [Compound 7d, N-(2,4-Dichlorobenzyl)-5-(3,5-dinitrophenyl)-1,3,4-oxadiazol-2-amine]
MIC (Mtb Praha 131; PRAHA131, 336 h): 0.125 µM (≈ 0.0513 µg/mL) | MIC (Mtb Praha 131; PRAHA131, 504 h): 0.125 µM (≈ 0.0513 µg/mL) | MIC (Mtb 7357/1998; 7357/1998, 336 h): 0.125 µM (≈ 0.0513 µg/mL) | MIC (Mtb 7357/1998; 7357/1998, 504 h): 0.125 µM (≈ 0.0513 µg/mL) | MIC (Mtb Praha 4; PRAHA4, 336 h): 0.06 µM (≈ 0.0246 µg/mL) | MIC (Mtb Praha 4; PRAHA4, 504 h): 0.125 µM (≈ 0.0513 µg/mL) | MIC (Mtb 8666/2010; 8666/2010, 336 h): 0.06 µM (≈ 0.0246 µg/mL) | MIC (Mtb 8666/2010; 8666/2010, 504 h): 0.125 µM (≈ 0.0513 µg/mL) | MIC (Mtb 234/2005; 234/2005, 336 h): 0.06 µM (≈ 0.0246 µg/mL) | MIC (Mtb 234/2005; 234/2005, 504 h): 0.125 µM (≈ 0.0513 µg/mL) | MIC (Mtb 9449/2007; 9449/2007, 336 h): 0.06 µM (≈ 0.0246 µg/mL) | MIC (Mtb 9449/2007; 9449/2007, 504 h): 0.125 µM (≈ 0.0513 µg/mL) | MIC (Mtb Praha 1; PRAHA1, 336 h): 0.125 µM (≈ 0.0513 µg/mL) | MIC (Mtb Praha 1; PRAHA1, 504 h): 0.125 µM (≈ 0.0513 µg/mL)

COc1ccc(CNc2nnc(-c3cc([N+](=O)[O-])cc([N+](=O)[O-])c3)s2)cc1 [Compound 8b, 5-(3,5-Dinitrophenyl)-N-(4-methoxybenzyl)-1,3,4-thiadiazol-2-amine]
MIC (Mtb Praha 131; PRAHA131, 336 h): ≤ 0.03 µM | MIC (Mtb Praha 131; PRAHA131, 504 h): ≤ 0.03 µM | MIC (Mtb 7357/1998; 7357/1998, 336 h): ≤ 0.03 µM | MIC (Mtb 7357/1998; 7357/1998, 504 h): ≤ 0.03 µM | MIC (Mtb Praha 4; PRAHA4, 336 h): ≤ 0.03 µM | MIC (Mtb Praha 4; PRAHA4, 504 h): ≤ 0.03 µM | MIC (Mtb 8666/2010; 8666/2010, 336 h): ≤ 0.03 µM | MIC (Mtb 8666/2010; 8666/2010, 504 h): ≤ 0.03 µM | MIC (Mtb 234/2005; 234/2005, 336 h): ≤ 0.03 µM | MIC (Mtb 234/2005; 234/2005, 504 h): ≤ 0.03 µM | MIC (Mtb 9449/2007; 9449/2007, 336 h): ≤ 0.03 µM | MIC (Mtb 9449/2007; 9449/2007, 504 h): ≤ 0.03 µM | MIC (Mtb Praha 1; PRAHA1, 336 h): ≤ 0.03 µM | MIC (Mtb Praha 1; PRAHA1, 504 h): ≤ 0.03 µM

CCCCCCCCCCCCCCCCCc1nnc(-c2ccncc2)o1 [III]
inhibitory concentration (MIC) [1]: ≥ 2.59 µM

CCCCCCCCCCCCCCCc1nnc(-c2ccncc2)o1 [II]
inhibitory concentration (MIC) [1]: ≥ 2.59 µM

— article PMC12121777 (PLOS One, 2025)
